The assay concerns OVCAR3 cells. Kind of assay: Cell proliferation study (Cell Titer Glo, 72 h). Particulars: Homo sapiens, OVCAR-3, luminescence, read-out: IC50, inhibitory effect on cellular proliferation. It is filed as cell-based. The protocol:
OVCAR3 (Cobioer, CBP60294) cell line in logarithmic growth phase was used for these experiments. The cell density was adjusted to 1.1×10^4/mL and the cells were inoculated into a 96-well cell culture plate (Corning, 3599), 95 μL per well (the number of cells per well was 1×10^3). The culture plate was placed in an incubator, with 5% carbon dioxide, at 37° C. and incubated overnight. On the next day, a 10 mM stock solution of test compound was prepared in DMSO (Sigma, RNBF5902). After gradient dilution, a series of working solutions with different concentrations of test compound was prepared using complete medium. Working solution was added into the corresponding wells of the orifice plate, and the plate was placed in a 5% carbon dioxide incubator and cultivated at 37° C. for 72 h, and then removed from the incubator. To each well was added 50 μL Cell Tier Glo (Promega, G7573), and the plate was incubated at room temperature for 10 min, followed by luminescence detection with an enzyme marker. The inhibition curve was obtained with GraphPad 7.0 software using four-parameter equation.

Bounds are passed on as bounds.

`Cc1nc2c(F)cc(-c3nc(NC4CCN(S(=O)(=O)C5CCN(CC6CC7CCC(C6)N7C6CN(c7cc8c(cc7F)C(=O)N(C7CCC(=O)NC7=O)C8=O)C6)CC5)CC4)ncc3F)cc2n1C(C)C` (stereo not drawn) [Compound 101]: the IC50 was < 0.1 µM. With `C[C@@]1(O)CCC[C@H]1n1c(=O)ccc2cnc(NC3CCN(S(=O)(=O)C4CCN(C(=O)C5CC6(CCN(c7cc8c(cc7F)C(=O)N(C7CCC(=O)NC7=O)C8=O)CC6)C5)CC4)CC3)nc21` (stereo partly drawn) [Compound 77], the IC50 is 1 to 5 µM. As for `C[C@@]1(O)CCC[C@H]1n1c(=O)ccc2cnc(NC3CCN(S(=O)(=O)C4CCN(CC5CCC6(CC5)CCN(c5cc7c(cc5F)C(=O)N(C5CCC(=O)NC5=O)C7=O)CC6)CC4)CC3)nc21` (stereo partly drawn) [Compound 90], the figure is 0.101 to 1 µM; as for `Cc1nc2c(F)cc(-c3nc(NC4CCN(S(=O)(=O)C5CCN(CC6CC(N7CCC(c8ccc9c(C%10CCC(=O)NC%10=O)nn(C)c9c8)CC7)C6)CC5)CC4)ncc3F)cc2n1C(C)C` (stereo not drawn) [Compound 103], < 0.1 µM; as for `CC(C)N1CCOc2c(F)cc(-c3nc(NC4CCN(S(=O)(=O)C5CCN(CC6CCN(c7ccc8c(c7)C(=O)N(C7CCC(=O)NC7=O)C8=O)CC6)CC5)CC4)ncc3F)cc21` (stereo not drawn) [Compound 19, 2-(2,6-dioxo-3-piperidyl)-5-[4-[[4-[[4-[[5-fluoro-4-(8-fluoro-4-isopropyl-2,3-dihydro-1,4-benzoxazin-6-yl)pyrimidin-2-yl]amino]-1-piperidyl]sulfonyl]-1-piperidyl]methyl]-1-piperidyl]isoindoline-1,3-dione], 0.101 to 1 µM. On to `C[C@@]1(O)CCC[C@H]1n1c(=O)ccc2cnc(NC3CCN(S(=O)(=O)C4CCN(C(=O)C5CCC6(CC5)CCN(c5cc7c(cc5F)C(=O)N(C5CCC(=O)NC5=O)C7=O)CC6)CC4)CC3)nc21` (stereo partly drawn) [Compound 78], for which the IC50 lay in the range of 0.101 to 1 µM. To `Cc1nc2c(F)cc(-c3nc(Nc4ccc(S(=O)(=O)C5CCN(C6CC7(CCN(c8cc9c(cc8F)C(=O)N(C8CCC(=O)NC8=O)C9=O)CC7)C6)CC5)cc4)ncc3F)cc2n1C(C)C` (stereo not drawn) [Compound 46] belongs 0.101 to 1 µM; to `Cc1nc2c(F)cc(-c3nc(N[C@@H]4CCN(S(=O)(=O)C5CCN(CC6CCN(c7cc8c(cc7F)C(=O)N(C7CCC(=O)NC7=O)C8=O)CC6)CC5)C[C@H]4O)ncc3Cl)cc2n1C(C)C` (stereo partly drawn) [Compound 112], 0.101 to 1 µM; to `C[C@@]1(O)CCC[C@H]1n1c(=O)ccc2cnc(NC3CCN(S(=O)(=O)C4CCN(C5CC6(CC(NC(=O)C7CCN(c8cc9c(cc8F)C(=O)N(C8CCC(=O)NC8=O)C9=O)CC7)C6)C5)CC4)CC3)nc21` (stereo partly drawn) [Compound 86], 0.101 to 1 µM. Turning to `C[C@@]1(O)CCC[C@H]1n1c(=O)ccc2cnc(NC3CCN(S(=O)(=O)C4CCN(C(=O)C5CCN(c6cc7c(cc6F)C(=O)N(C6CCC(=O)NC6=O)C7=O)CC5)CC4)CC3)nc21` (stereo partly drawn) [Compound 67], the IC50 is 0.101 to 1 µM. In the case of `C[C@@]1(O)CCC[C@H]1n1c(=O)ccc2cnc(NC3CCN(S(=O)(=O)C4CCN(C(=O)CC5CCN(c6cc7c(cc6F)C(=O)N(C6CCC(=O)NC6=O)C7=O)CC5)CC4)CC3)nc21` (stereo partly drawn) [Compound 62], the IC50 lay within 1 to 5 µM. `CC(C)N1CCOc2c(F)cc(-c3nc(Nc4ccc(S(=O)(=O)NCCOCc5cn(CCOCCOCCNc6cccc7c6C(=O)N(C6CCC(=O)NC6=O)C7=O)nn5)cc4)ncc3F)cc21` (stereo not drawn) [Compound 20, N-[2-[[1-[2-[2-[2-[[2-(2,6-dioxo-3-piperidyl)-1,3-dioxo-isoindolin-4-yl]amino]ethoxy]ethoxy]ethyl]triazol-4-yl]methoxy]ethyl]-4-[[5-fluoro-4-(8-fluoro-4-isopropyl-2,3-dihydro-1,4-benzoxazin-6-yl)pyrimidin-2-yl]amino]benzenesulfonamide]: the IC50 is > 10 µM.

As for `Cc1nc2c(F)cc(-c3nc(Nc4ccc(S(=O)(=O)N5CCC6(CCN(C(=O)COc7cccc8c7C(=O)N(C7CCC(=O)NC7=O)C8=O)CC6)CC5)cc4)ncc3F)cc2n1C(C)C` (stereo not drawn) [Compound 39], the IC50 lay in the range of 1 to 5 µM. As for `C[C@@]1(O)CCC[C@H]1n1c(=O)ccc2cnc(NC3CCN(S(=O)(=O)N4CCN(CC5CCN(c6cc7c(cc6F)C(=O)N(C6CCC(=O)NC6=O)C7=O)CC5)CC4)CC3)nc21` (stereo partly drawn) [Compound 60], the figure is 1 to 5 µM; as for `Cc1nc2c(F)cc(-c3nc(NC4CCN(S(=O)(=O)C5CCN(CC6CCN(c7cc8c(cc7F)C(=O)N(C7CCC(=O)NC7=O)C8=O)C6)CC5)CC4)ncc3F)cc2n1C(C)C` (stereo not drawn) [Compound 108], < 0.1 µM; as for `C[C@@]1(O)CCC[C@H]1n1c(=O)ccc2cnc(NC3CCN(S(=O)(=O)C4CCN(C5CCC6(CCN(c7cc8c(cc7F)C(=O)N(C7CCC(=O)NC7=O)C8=O)CC6)C5)CC4)CC3)nc21` (stereo partly drawn) [Compound 81], 0.101 to 1 µM. As for `C[C@@]1(O)CCC[C@H]1n1c(=O)ccc2cnc(NC3CCN(S(=O)(=O)C4CCN(C5CC(C6CCN(c7cc8c(cc7F)C(=O)N(C7CCC(=O)NC7=O)C8=O)CC6)C5)CC4)CC3)nc21` (stereo partly drawn) [Compound 96], the IC50 was > 10 µM. As for `CC(C)N1CCOc2c(F)cc(-c3nc(Nc4ccc(S(=O)(=O)NCCOCc5cn(CCOCCOCCNc6cc7c(cc6F)C(=O)N(C6CCC(=O)NC6=O)C7=O)nn5)cc4)ncc3F)cc21` (stereo not drawn) [Compound 21, N-[2-[[1-[2-[2-[2-[[2-(2,6-dioxo-3-piperidyl)-6-fluoro-1,3-dioxo-isoindolin-5-yl]amino]ethoxy]ethoxy]ethyl]triazol-4-yl]methoxy]ethyl]-4-[[5-fluoro-4-(8-fluoro-4-isopropyl-2,3-dihydro-1,4-benzoxazin-6-yl)pyrimidin-2-yl]amino]benzenesulfonamide], the figure is 1 to 5 µM. Turning to `Cc1nc2c(F)cc(-c3nc(Nc4ccc(S(=O)(=O)NCCOCCNc5cccc6c5C(=O)N(C5CCC(=O)NC5=O)C6=O)cc4)ncc3F)cc2n1C(C)C` (stereo not drawn) [Compound 47], the IC50 is 1 to 5 µM. To `C[C@@]1(O)CCC[C@H]1n1c(=O)ccc2cnc(NC3CCN(S(=O)(=O)N4CCN(CC5CCN(c6cc7c(cc6F)C(=O)N(C6CCC(=O)NC6=O)C7=O)C5)CC4)CC3)nc21` (stereo partly drawn) [Compound 61] belongs 0.101 to 1 µM. To `C[C@@]1(O)CCC[C@H]1n1c(=O)ccc2cnc(NC3CCN(S(=O)(=O)C4CCN(C5CCC6(CCN(c7cc8c(cc7F)C(=O)N(C7CCC(=O)NC7=O)C8=O)C6)C5)CC4)CC3)nc21` (stereo partly drawn) [Compound 84] belongs 0.101 to 1 µM; to `C[C@@]1(O)CCC[C@H]1n1c(=O)ccc2cnc(NC3CCN(S(=O)(=O)C4CCN(CC5CCN(c6cc7c(cc6F)C(=O)N(C6CCC(=O)NC6=O)C7=O)CC5)CC4)CC3)nc21` (stereo partly drawn) [Compound 93], 1 to 5 µM; to `Cc1nc2c(F)cc(-c3nc(Nc4ccc(S(=O)(=O)NCCOCCNc5cc6c(cc5F)C(=O)N(C5CCC(=O)NC5=O)C6=O)cc4)ncc3F)cc2n1C(C)C` (stereo not drawn) [Compound 70], 0.101 to 1 µM. As to `CC(C)N1CCOc2c(F)cc(-c3nc(Nc4ccc(S(=O)(=O)N5CCN(C(=O)C6CCN(c7cccc8c7C(=O)N(C7CCC(=O)NC7=O)C8=O)CC6)CC5)cc4)ncc3F)cc21` (stereo not drawn) [Compound 53], the IC50 is > 10 µM. To `Cc1nc2c(F)cc(-c3nc(NC4CCN(S(=O)(=O)C5CCN(CC6CC7CCC(C6)N7c6cc7c(cc6F)C(=O)N(C6CCC(=O)NC6=O)C7=O)CC5)CC4)ncc3F)cc2n1C(C)C` (stereo not drawn) [Compound 99] belongs 0.101 to 1 µM.

With `CC(C)N1CCOc2c(F)cc(-c3nc(Nc4ccc(S(=O)(=O)N5CCN(C6CC7(CCN(c8cccc9c8C(=O)N(C8CCC(=O)NC8=O)C9=O)CC7)C6)CC5)cc4)ncc3F)cc21` (stereo not drawn) [Compound 72], the IC50 was > 10 µM. For the compound `C[C@@]1(O)CCC[C@H]1n1c(=O)ccc2cnc(Nc3ccc(S(=O)(=O)C4CCN(C5CC6(CCN(c7cc8c(cc7F)C(=O)N(C7CCC(=O)NC7=O)C8=O)CC6)C5)CC4)cc3)nc21` (stereo partly drawn) [Compound 22], the IC50 is > 10 µM. As for `CC(C)N1CCOc2c(F)cc(-c3nc(Nc4ccc(S(=O)(=O)N5CCN(C6CN(C7CCN(c8cccc9c8C(=O)N(C8CCC(=O)NC8=O)C9=O)CC7)C6)CC5)cc4)ncc3F)cc21` (stereo not drawn) [Compound 52], the figure is 1 to 5 µM; as for `CC(C)N1CCOc2c(F)cc(-c3nc(Nc4ccc(S(=O)(=O)N5CCC(NC(=O)C6CCN(c7cccc8c7C(=O)N(C7CCC(=O)NC7=O)C8=O)CC6)CC5)cc4)ncc3F)cc21` (stereo not drawn) [Compound 73], > 10 µM; as for `Cc1nc2c(F)cc(-c3nc(Nc4ccc(S(=O)(=O)C5CCN(C6CN(C7CCN(c8cc9c(cc8F)C(=O)N(C8CCC(=O)NC8=O)C9=O)CC7)C6)CC5)cc4)ncc3F)cc2n1C(C)C` (stereo not drawn) [Compound 66], < 0.1 µM.

In the case of `CC(C)N1CCOc2c(F)cc(-c3nc(Nc4ccc(C5CCN(CCCCCCCCCOc6cccc7c6C(=O)N(C6CCC(=O)NC6=O)C7=O)CC5)cn4)ncc3F)cc21` (stereo not drawn) [Compound 1], the IC50 is > 10 µM. As for `Cc1nc2c(F)cc(-c3nc(N[C@@H]4CCN(S(=O)(=O)C5CCN(CC6CCN(c7cc8c(cc7F)C(=O)N(C7CCC(=O)NC7=O)C8=O)CC6)CC5)C[C@H]4O)ncc3F)cc2n1C(C)C` (stereo partly drawn) [Compound 111], the IC50 is < 0.1 µM.

As to `C[C@@]1(O)CCC[C@H]1n1c(=O)ccc2cnc(NC3CCN(S(=O)(=O)CCCCCCCCCOc4cccc5c4C(=O)N(C4CCC(=O)NC4=O)C5=O)CC3)nc21` (stereo partly drawn) [Compound 92], the IC50 was > 10 µM. Turning to `CC(C)N1CCOc2c(F)cc(-c3nc(Nc4ccc(C5CCN(CCCCNC(=O)COc6cccc7c6C(=O)N(C6CCC(=O)NC6=O)C7=O)CC5)nc4)ncc3F)cc21` (stereo not drawn) [Compound 30], the IC50 lay within 0.101 to 1 µM. To `Cc1nc2c(F)cc(-c3nc(NC4CCN(S(=O)(=O)C5CCN(CC6CC7(CCN(c8cc9c(cc8F)C(=O)N(C8CCC(=O)NC8=O)C9=O)CC7)C6)CC5)CC4)ncc3F)cc2n1C(C)C` (stereo not drawn) [Compound 98] belongs 0.101 to 1 µM; to `C[C@@]1(O)CCC[C@H]1n1c(=O)ccc2cnc(NC3CCN(S(=O)(=O)C4CCN(CC5CC6(CCN(c7cc8c(cc7F)C(=O)N(C7CCC(=O)NC7=O)C8=O)CC6)C5)CC4)CC3)nc21` (stereo partly drawn) [Compound 82], 0.101 to 1 µM.

The values are drawn from US20240050577A1, “CDK INHIBITORS AND PHARMACEUTICAL USES THEREOF” (RISEN (SUZHOU) PHARMA TECH CO., LTD., priority 2022, published 2024).
